Strand notation (5' to 3'): a small letter for the sugar, then the base; units joined by * are phosphorothioate-linked, units joined directly phosphodiester-linked; [ ] holds rarer units or linkages, { } end groups; capitals alone tell only the bases. k = constrained ethyl (cEt); [5mC] = 5-methylcytosine; d = 2'-deoxy (DNA)
These substances were tested on human SMAD7 mRNA (assay: Antisense inhibition of human SMAD7 mRNA expression in Hep3B cells by 3-10-3 cEt gapmers, 10,000 nM, electroporation (Example 2)). Details: Hep3B cells, 10,000 nM antisense oligonucleotide, electroporation, approximately 24 hours, RT-PCR primer probe set RTS5062, relative to untreated control cells.
Assay type: cell-based
In short: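 Hep3B cells (20,000 per well) were electroporated with 10,000 nM 16-mer 3-10-3 cEt gapmer (phosphorothioate, 5-methylcytosine). After about 24 h, SMAD7 mRNA was quantified by qRT-PCR with primer probe set RTS5062, normalised to RIBOGREEN total RNA, and expressed as percent inhibition versus untreated cells.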
“799916 (antisense k[5mC]*kA*k[5mC]*dA*dA*dA*dT*d[5mC]*dA*dA*dA*dA*dG*k[5mC]*kT*k[5mC]) [compound 799916]” was tested, and the “% Inhibition” value was 47%.
“799860 (kT*kG*k[5mC]*d[5mC]*dG*dA*d[5mC]*dA*d[5mC]*dA*dT*dG*dA*kG*kG*k[5mC]; antisense) [compound 799860]” was tested, and the “% Inhibition” value was 0%.
“800049 (antisense kA*kA*k[5mC]*dA*dA*dA*d[5mC]*d[5mC]*dT*dG*dG*d[5mC]*d[5mC]*kT*kG*kG) [compound 800049]” was tested, and the “% Inhibition” value was 7%.
In the case of “800098 (antisense kT*kT*kT*dT*dA*dG*dG*dG*d[5mC]*d[5mC]*dT*d[5mC]*dA*kA*kA*kA) [compound 800098]”, the “% Inhibition” value is reported as 1%.
With “798841 (k[5mC]*kT*kG*dA*d[5mC]*dT*d[5mC]*dT*dT*dG*dT*dT*dG*kT*k[5mC]*k[5mC]; antisense) [compound 798841]” the “% Inhibition” value was 0%.

Same assay, conditions: Hep3B cells, electroporation with 10,000 nM antisense oligonucleotide, approximately 24 hours, RTS5062, percent inhibition of SMAD7 mRNA relative to untreated control cells
With “799804 (kA*k[5mC]*kA*dG*dA*d[5mC]*dA*dG*dA*dG*dA*dA*dG*kG*kA*kT; antisense) [compound 799804]” the “% Inhibition” value was 38%.
With “799592 (kG*kG*kA*dA*dT*dT*dA*dG*dT*dA*dA*dA*dT*k[5mC]*kA*kA; antisense) [compound 799592]” the “% Inhibition” value was 47%.

Same assay, conditions: Hep3B cells, electroporation with 10,000 nM antisense oligonucleotide, approximately 24 hours, SMAD7 mRNA by RT-PCR (RTS5062), relative to untreated control cells
In the case of “830194 (antisense k[5mC]*k[5mC]*kT*dT*dT*dT*d[5mC]*d[5mC]*dG*dG*dT*dA*dT*kT*kT*kT) [compound 830194]”, the “% Inhibition” value is reported as 49%.
In the case of “830070 (kA*kA*kA*dG*dG*dT*dA*dA*dG*d[5mC]*d[5mC]*dA*dG*k[5mC]*kT*k[5mC]; antisense) [compound 830070]”, the “% Inhibition” value is reported as 44%.
“830134 (antisense kA*kG*kT*dA*d[5mC]*dA*dA*dT*d[5mC]*dT*d[5mC]*d[5mC]*dT*kG*kG*kA) [compound 830134]” was tested, and the “% Inhibition” value was 61%.
In the case of “800063 (antisense kG*k[5mC]*k[5mC]*dA*dT*dA*d[5mC]*dA*dA*dA*dT*dG*dT*kG*k[5mC]*kA) [compound 800063]”, the “% Inhibition” value is reported as 0%.
With “799254 (antisense kA*kA*kA*d[5mC]*dT*d[5mC]*d[5mC]*dA*dA*dA*dG*dG*dT*kG*k[5mC]*kG) [compound 799254]” the “% Inhibition” value was 11%.
For “830155 (antisense kT*kG*kT*dG*d[5mC]*d[5mC]*dT*d[5mC]*dA*dG*d[5mC]*dA*dG*kT*kT*kA) [compound 830155]”, the “% Inhibition” value was 38%.
“798736 (antisense kG*k[5mC]*kG*d[5mC]*d[5mC]*d[5mC]*d[5mC]*d[5mC]*dG*dG*d[5mC]*d[5mC]*dG*k[5mC]*kG*k[5mC]) [compound 798736]” was tested, and the “% Inhibition” value was 0%.

Same assay, conditions: Hep3B cells, electroporation with 10,000 nM antisense oligonucleotide, approximately 24 hours, primer probe set RTS5062, relative to untreated control cells
In the case of “799081 (antisense kT*k[5mC]*kT*d[5mC]*dA*dG*dG*dG*dA*dG*dA*dT*d[5mC]*k[5mC]*kA*kG) [compound 799081]”, the “% Inhibition” value is reported as 28%.
For “799158 (antisense kT*kA*kT*dG*dA*dG*dT*dT*dG*dT*dA*dG*dA*kA*kG*kA) [compound 799158]”, the “% Inhibition” value was 33%.
For “798984 (antisense kG*k[5mC]*k[5mC]*d[5mC]*d[5mC]*d[5mC]*d[5mC]*dT*dT*d[5mC]*dA*dT*dA*k[5mC]*kA*k[5mC]) [compound 798984]”, the “% inhibition of SMAD7 mRNA expression” value was 64%.
For “798776 (kA*k[5mC]*kA*d[5mC]*dA*dG*d[5mC]*d[5mC]*dT*d[5mC]*dT*dT*dG*kA*k[5mC]*kT; antisense) [compound 798776]”, the “% inhibition of SMAD7 mRNA expression” value was 34%.
With “798948 (antisense kG*k[5mC]*kG*dA*dA*dA*d[5mC]*dA*dA*dA*dA*d[5mC]*dA*kG*kA*kA) [compound 798948]” the “% inhibition of SMAD7 mRNA expression” value was 56%.
“799436 (antisense kA*kG*k[5mC]*d[5mC]*dA*dT*dT*d[5mC]*d[5mC]*dT*d[5mC]*dA*dA*kA*k[5mC]*k[5mC]) [compound 799436]” was tested, and the “% inhibition of SMAD7 mRNA expression” value was 4%.
“798674 (antisense k[5mC]*kA*kG*dG*d[5mC]*dG*dA*d[5mC]*dA*dG*d[5mC]*dA*dG*k[5mC]*kA*kG) [compound 798674]” was tested, and the “% inhibition of SMAD7 mRNA expression” value was 39%.
With “799437 (antisense k[5mC]*k[5mC]*kA*dG*dA*dT*d[5mC]*dT*d[5mC]*dA*dG*dG*dT*k[5mC]*kA*kA) [compound 799437]” the “% inhibition of SMAD7 mRNA expression” value was 26%.
In the case of “799042 (kT*kG*k[5mC]*dT*d[5mC]*d[5mC]*dT*dG*dG*d[5mC]*dA*dG*d[5mC]*kT*kG*k[5mC]; antisense) [compound 799042]”, the “% Inhibition” value is reported as 33%.
In the case of “799423 (antisense kT*kA*k[5mC]*d[5mC]*dA*dG*dG*d[5mC]*d[5mC]*d[5mC]*d[5mC]*dA*dG*k[5mC]*k[5mC]*k[5mC]) [compound 799423]”, the “% inhibition of SMAD7 mRNA expression” value is reported as 14%.
In the case of “799072 (antisense kG*k[5mC]*kA*dG*dG*dA*dA*dG*dG*dG*dA*dA*dT*kA*kA*kG) [compound 799072]”, the “% inhibition of SMAD7 mRNA expression” value is reported as 55%.
For “790462 (kG*k[5mC]*kG*d[5mC]*dA*dG*dG*d[5mC]*dG*dA*d[5mC]*dA*dG*k[5mC]*kA*kG; antisense) [compound 790462]”, the “% inhibition of SMAD7 mRNA expression” value was 43%.
“799230 (kG*kG*kT*dG*dA*dT*dA*dA*d[5mC]*dA*d[5mC]*d[5mC]*d[5mC]*kA*kT*kA; antisense) [compound 799230]” was tested, and the “% inhibition of SMAD7 mRNA expression” value was 14%.
For “799127 (antisense kA*kG*kG*dG*dA*d[5mC]*dA*dT*d[5mC]*d[5mC]*d[5mC]*d[5mC]*dG*k[5mC]*kT*kT) [compound 799127]”, the “% inhibition of SMAD7 mRNA expression” value was 67%.
With “799362 (k[5mC]*kA*kT*d[5mC]*dA*dA*d[5mC]*d[5mC]*dA*dG*dT*d[5mC]*d[5mC]*kT*kA*kT; antisense) [compound 799362]” the “% inhibition of SMAD7 mRNA expression” value was 39%.
In the case of “798710 (antisense k[5mC]*k[5mC]*k[5mC]*d[5mC]*dA*dT*dG*d[5mC]*dG*d[5mC]*dT*d[5mC]*dG*kG*k[5mC]*kT) [compound 798710]”, the “% inhibition of SMAD7 mRNA expression” value is reported as 54%.
With “799248 (antisense kG*k[5mC]*k[5mC]*dA*d[5mC]*dG*dA*d[5mC]*dA*dG*dT*dA*dT*k[5mC]*kT*kG) [compound 799248]” the “% inhibition of SMAD7 mRNA expression” value was 40%.
“798808 (kG*kG*kA*dA*dT*d[5mC]*dT*dG*dA*dA*dA*dG*d[5mC]*k[5mC]*k[5mC]*k[5mC]; antisense) [compound 798808]” was tested, and the “% inhibition of SMAD7 mRNA expression” value was 44%.

Same assay, conditions: Hep3B cells, electroporation, 10,000 nM antisense oligonucleotide, approximately 24 hours, RTS5062, relative to untreated control cells
“799283 (antisense kA*kA*kG*dA*d[5mC]*dA*dG*dA*d[5mC]*d[5mC]*dA*d[5mC]*dA*kG*k[5mC]*kA) [compound 799283]” was tested, and the “% inhibition of SMAD7 mRNA expression” value was 34%.
“799640 (k[5mC]*kA*kA*dG*dG*dA*d[5mC]*d[5mC]*dT*dG*dT*dT*d[5mC]*kT*kG*kG; antisense) [compound 799640]” was tested, and the “% inhibition of SMAD7 mRNA expression” value was 40%.

Same assay, conditions: Hep3B cells, electroporation, 10,000 nM, approximately 24 hours; 3-10-3 cEt gapmers targeting SEQ ID NO: 3 and 4
“799239 (kT*k[5mC]*kA*dG*dT*dT*dG*dG*dT*dT*dT*dG*dA*kG*kA*kA; antisense) [compound 799239]” was tested, and the “% inhibition of SMAD7 mRNA expression” value was 16%.

Same assay, conditions: SMAD7 mRNA, Hep3B cells, 10,000 nM antisense oligonucleotide, electroporation, approximately 24 hours, primer probe set RTS5062, relative to untreated control cells
“829789 (kA*k[5mC]*kT*dT*d[5mC]*d[5mC]*dG*dA*dG*dG*dA*dA*dT*kG*k[5mC]*k[5mC]; antisense) [compound 829789]” was tested, and the “% Inhibition” value was 42%.
For “829750 (antisense k[5mC]*kG*kT*d[5mC]*d[5mC]*dT*d[5mC]*dG*d[5mC]*d[5mC]*dG*d[5mC]*d[5mC]*kG*kG*kG) [compound 829750]”, the “% Inhibition” value was 33%.
“772739 (kT*kA*k[5mC]*dT*d[5mC]*dA*d[5mC]*d[5mC]*dA*dG*dT*dT*dG*kG*kT*kT; antisense) [compound 772739]” was tested, and the “% Inhibition” value was 0%.
With “790618 (kA*kG*k[5mC]*dA*d[5mC]*dT*dA*d[5mC]*dA*dA*dT*dG*d[5mC]*kT*kA*kA; antisense) [compound 790618]” the “% Inhibition” value was 24%.
For “829740 (antisense k[5mC]*kT*kG*d[5mC]*dT*dA*dA*dG*dG*dA*dG*d[5mC]*dG*kA*kA*k[5mC]) [compound 829740]”, the “% Inhibition” value was 52%.

Same assay, conditions: SMAD7 mRNA, Hep3B cells, electroporation with 10,000 nM antisense oligonucleotide, approximately 24 hours, primer probe set RTS5062, relative to untreated control cells
“829822 (kT*kG*kT*dT*dT*d[5mC]*dA*dG*d[5mC]*dG*dG*dA*dG*kG*kA*kA; antisense) [compound 829822]” was tested, and the “% Inhibition” value was 43%.
In the case of “829796 (kT*kT*kG*dA*dT*d[5mC]*dT*dT*d[5mC]*d[5mC]*d[5mC]*dG*dT*kA*kA*kG; antisense) [compound 829796]”, the “% Inhibition” value is reported as 27%.
With “829958 (kG*k[5mC]*kA*d[5mC]*d[5mC]*dT*dT*dG*dT*d[5mC]*dA*d[5mC]*d[5mC]*k[5mC]*kG*kT; antisense) [compound 829958]” the “% Inhibition” value was 51%.
For “829881 (antisense k[5mC]*kG*kT*d[5mC]*d[5mC]*dT*dG*dG*dA*dG*dT*d[5mC]*d[5mC]*kG*kG*kG) [compound 829881]”, the “% Inhibition” value was 39%.
With “829874 (antisense kG*kT*kT*dG*dT*d[5mC]*d[5mC]*dA*dG*dT*dG*dT*dG*kG*k[5mC]*kG) [compound 829874]” the “% Inhibition” value was 43%.
For “829966 (kT*kT*k[5mC]*d[5mC]*d[5mC]*dA*dG*dG*dA*dG*dG*dG*dT*kA*kT*kG; antisense) [compound 829966]”, the “% Inhibition” value was 0%.
“829937 (kT*kT*k[5mC]*dA*dG*d[5mC]*dT*dA*dG*dG*dT*dG*dA*kT*kA*kA; antisense) [compound 829937]” was tested, and the “% Inhibition” value was 0%.
For “829904 (antisense kG*k[5mC]*kT*dG*dT*dT*dG*dA*dA*dG*dA*dT*dG*kA*k[5mC]*k[5mC]) [compound 829904]”, the “% Inhibition” value was 21%.
In the case of “829800 (kG*kT*k[5mC]*dG*dG*d[5mC]*dT*dA*dA*dG*dG*dT*dG*kA*kT*kG; antisense) [compound 829800]”, the “% Inhibition” value is reported as 30%.
